A value given as a limit tells only on which side of the number the result lay.

In assay [1] the target is T1, KDR (VEGFR2) (Homo sapiens, UniProt P35968).
T1 construct: phosphorylation of KDR expressed in human umbilical vein endothelial cells (HUVECs); host or cells: HUVECs
The assay is described as follows: In vitro phospho-KDR ELISA assay (Test (c)), HUVECs stimulated with VEGF. The format is cell-based. Particulars: read-out: IC50 versus phospho-tyrosine formation in KDR. The protocol:
(c) In Vitro phospho-KDR ELISA Assay
This assay uses a conventional ELISA method to determine the ability of test compounds to inhibit phosphorylation of tyrosine in KDR (VEGFR2).
Human umbilical vein endothelial cells (HUVECs; PromoCell) were routinely incubated at 37° C. with 7.5% CO2 in ‘growth medium’ comprising MCDB 131 (Gibco Catalogue No. 10372-019; 500 ml) containing L-glutamine (Sigma Catalogue No. G3126; 0.848 g), 1% Penicillin Streptomycin (Gibco Catalogue No. 15140-122) and Fetal Bovine Serum (PAA Laboratories Catalogue No. A15-043; 50 ml).
For the assay, the cells were detached from the culture flask using a trypsin/ethylenediaminetetraacetic acid (EDTA) mixture (Invitrogen Ltd.; Catalogue No. 15400-054) and resuspended in ‘test medium’ comprising MCDB 131 (500 ml) containing L-glutamine (0.848 g), 1% Penicillin Streptomycin and Fetal Bovine Serum (10 ml). Aliquots (1 ml) were seeded into each well of a 24 well tissue culture plate (Corning Life Sciences; Catalogue No. 3527) to give a density of approximately 3.5×10^4 cells per well. The cells were incubated overnight at 37° C. with 7.5% CO2 to allow adherence to the well surface. The following morning the assay medium was decanted and an aliquot (0.5 ml) of ‘serum free medium’ comprising MCDB 131 (500 ml) containing L-glutamine (0.848 g) and 1% Penicillin Streptomycin was added to each well. The plates were incubated at 37° C. for 2.5 hours.
Test compounds were prepared as 10 mM stock solutions in DMSO and serially diluted with DMSO as required. Aliquots (3 μl) of each concentration of test compound were diluted with ‘serum free medium’ (300 μl). Aliquots (50 μl) of each resultant compound concentration were added to the cells in each well. “Maximum” control cells received only a dilution of DMSO whereas the “minimum” controls received a reference KDR inhibitor to give a final concentration of 1 μM. The cells were incubated for 90 minutes at 37° C. with 7.5% CO2.
The resultant cells were stimulated with VEGF using the following procedure. A lyophilised powder of VEGF (Sigma-Aldrich; Catalogue No. V7259) was mixed with PBS containing 0.1% filter-sterilised BSA (0.1% BSA/PBS) to provide a stock solution of 10 μg/ml of VEGF. A dilution of this stock solution into ‘serum free medium’ provided a 1000 ng/ml VEGF solution. Aliquots thereof (50 μl) were added to all wells. The cells were incubated at 37° C. with 7.5% CO2 for 5 minutes. The solution from the wells was removed and the cells were lysed by the addition of 100 μl/well of RIPA buffer comprising 60 mM Tris-HCl, 150 mM sodium chloride, 1 mM EDTA, 1% v/v Igepal CA-630, 0.25% sodium deoxycholate, 1% v/v phosphatase inhibitor cocktail 1 P2850, 1% phosphatase inhibitor cocktail 2 P5726 and 0.5% v/v protease inhibitor cocktail P8340. […]
(ELISA stands for enzyme-linked immunosorbent assay.)

For assay [2], the target named is T2, PDGFRβ (Homo sapiens, UniProt P09619).
T2 construct: endogenous in cells; host or cells: MG63 osteosarcoma cells (ATCC)
The assay is described as follows: In vitro phospho-Tyr751 PDGFRβ ELISA assay (Test (b)), MG63 osteosarcoma cells stimulated with PDGFBB. The format is cell-based. The following applies: read-out: IC50 versus phospho-Tyr751 formation in PDGFRβ. As to the method: (b) In Vitro phospho-Tyr751 PDGFRβ ELISA Assay
This assay uses a conventional ELISA method to determine the ability of test compounds to inhibit phosphorylation of tyrosine in PDGFRβ.
An MG63 osteosarcoma cell line [American Type Culture Collection (ATCC) CCL 1427] was routinely maintained at 37° C. with 7.5% CO2 in Dulbecco's modified Eagle's growth medium (DMEM; Sigma-Aldrich; Catalogue No. D6546) containing 10% foetal calf serum (FCS; Sigma-Aldrich; Catalogue No. F7524) and 2 mM L-glutamine (Invitrogen Ltd., Paisley, UK; Catalogue No. 25030-024).
For the assay, the cells were detached from the culture flask using a trypsin/ethylenediaminetetraacetic acid (EDTA) mixture (Invitrogen Ltd.; Catalogue No. 15400-054) and resuspended in a test medium comprising DMEM without phenol red (Sigma-Aldrich; Catalogue No. D5921) containing 1% charcoal-stripped foetal calf serum (FCS) (Sigma-Aldrich; Catalogue No. F7524, stripped by incubation with dextran-coated activated charcoal at 55° C. for 30 minutes with continuous stirring followed by removal of the charcoal by centrifugation and filter sterilisation) and 2 mM L-glutamine (Invitrogen Ltd., Catalogue No. 25030-024) to give 6×10^4 cells per ml. Aliquots (100 μl) were seeded into each of the wells of columns […] (excluding column 1) and rows B-G (excluding rows A and H) of a clear 96 well tissue culture plate (Corning Life Sciences, Koolhovenlaan, The Netherlands; Catalogue No. 3595) to give a density of about 6000 cells per well. Aliquots (100 μl) of culture media were placed in the outer wells to minimise edge effects. The cells were incubated overnight at 37° C. with 7.5% CO2 to allow the cells to adhere to the wells.
Test compounds were prepared as 10 mM stock solutions in DMSO and serially diluted as required with DMSO to give a range of concentrations. Aliquots (3 μl) of each compound concentration were added to test medium (300 μl) to create a second dilution range. Aliquots (16 μl) of each resultant compound concentration were added to the cells in each well. “Maximum” control cells received a dilution of DMSO plus test medium only. “Minimum” control cells received a reference PDGFR inhibitor (16 μl). The cells were incubated for 90 minutes at 37° C. with 7.5% CO2.
The resultant cells were stimulated with PDGFBB using the following procedure. A lyophilised powder of PDGFBB, (Sigma-Aldrich; Catalogue No. P4306) was mixed with sterile water to provide a stock solution of 10 μg/ml of PDGFBB. A dilution of this stock solution into test medium provided a 182 ng/ml PDGFBB solution. Aliquots thereof (44 μl) were added to compound treated cells and to the “Maximum” control cells. The “Minimum” control cells received medium only. The cells were incubated at 37° C. with 7.5% CO2 for 5 minutes. The solution from the wells was removed and the cells were lysed by the addition of 120 μl/well of RIPA buffer comprising 60 mM tris(hydroxymethyl)aminomethane hydrochloride (Tris-HCl), 150 mM sodium chloride, 1 mM EDTA, 1% v/v Igepal CA-630, 0.25% sodium deoxycholate, 1% v/v phosphatase inhibitor cocktail 1 P2850, 1% phosphatase inhibitor cocktail 2 P5726 and 0.5% v/v protease inhibitor cocktail P8340 (all chemicals and inhibitor cocktails were obtainable from the Sigma-Aldrich Company Ltd.). The resultant tissue culture plates were shaken for 5 minutes at ambient temperature to ensure full lysis and then frozen at −20° C. until required. […]

T2 sequence (P09619 33-1106): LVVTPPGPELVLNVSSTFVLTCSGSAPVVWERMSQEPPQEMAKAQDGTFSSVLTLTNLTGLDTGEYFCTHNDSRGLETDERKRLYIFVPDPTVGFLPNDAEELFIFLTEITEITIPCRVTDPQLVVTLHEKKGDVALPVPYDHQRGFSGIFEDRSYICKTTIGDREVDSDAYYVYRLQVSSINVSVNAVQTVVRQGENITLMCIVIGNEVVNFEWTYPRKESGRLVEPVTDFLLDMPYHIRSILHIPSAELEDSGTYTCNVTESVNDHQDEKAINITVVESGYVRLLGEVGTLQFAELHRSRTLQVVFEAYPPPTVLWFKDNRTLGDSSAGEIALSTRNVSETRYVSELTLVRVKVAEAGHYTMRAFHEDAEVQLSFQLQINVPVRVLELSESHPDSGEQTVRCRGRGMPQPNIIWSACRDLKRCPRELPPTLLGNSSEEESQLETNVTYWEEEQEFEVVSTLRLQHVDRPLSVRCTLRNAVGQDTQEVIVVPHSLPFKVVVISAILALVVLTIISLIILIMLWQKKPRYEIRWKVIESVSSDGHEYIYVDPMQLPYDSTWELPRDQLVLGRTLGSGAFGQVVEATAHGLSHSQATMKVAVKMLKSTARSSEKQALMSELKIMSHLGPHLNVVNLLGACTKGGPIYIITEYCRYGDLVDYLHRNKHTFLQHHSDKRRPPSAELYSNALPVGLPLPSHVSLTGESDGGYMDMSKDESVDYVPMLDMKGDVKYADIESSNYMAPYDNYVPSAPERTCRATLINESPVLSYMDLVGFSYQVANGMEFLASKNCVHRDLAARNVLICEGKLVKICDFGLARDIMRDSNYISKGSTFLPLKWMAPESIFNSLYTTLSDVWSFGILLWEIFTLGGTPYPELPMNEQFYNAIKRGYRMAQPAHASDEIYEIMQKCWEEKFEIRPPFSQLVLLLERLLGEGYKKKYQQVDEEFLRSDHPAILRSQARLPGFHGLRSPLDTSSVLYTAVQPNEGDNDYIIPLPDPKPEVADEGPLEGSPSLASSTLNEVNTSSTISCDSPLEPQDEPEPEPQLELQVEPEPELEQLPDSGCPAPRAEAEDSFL
T1 sequence (P35968 20-1356): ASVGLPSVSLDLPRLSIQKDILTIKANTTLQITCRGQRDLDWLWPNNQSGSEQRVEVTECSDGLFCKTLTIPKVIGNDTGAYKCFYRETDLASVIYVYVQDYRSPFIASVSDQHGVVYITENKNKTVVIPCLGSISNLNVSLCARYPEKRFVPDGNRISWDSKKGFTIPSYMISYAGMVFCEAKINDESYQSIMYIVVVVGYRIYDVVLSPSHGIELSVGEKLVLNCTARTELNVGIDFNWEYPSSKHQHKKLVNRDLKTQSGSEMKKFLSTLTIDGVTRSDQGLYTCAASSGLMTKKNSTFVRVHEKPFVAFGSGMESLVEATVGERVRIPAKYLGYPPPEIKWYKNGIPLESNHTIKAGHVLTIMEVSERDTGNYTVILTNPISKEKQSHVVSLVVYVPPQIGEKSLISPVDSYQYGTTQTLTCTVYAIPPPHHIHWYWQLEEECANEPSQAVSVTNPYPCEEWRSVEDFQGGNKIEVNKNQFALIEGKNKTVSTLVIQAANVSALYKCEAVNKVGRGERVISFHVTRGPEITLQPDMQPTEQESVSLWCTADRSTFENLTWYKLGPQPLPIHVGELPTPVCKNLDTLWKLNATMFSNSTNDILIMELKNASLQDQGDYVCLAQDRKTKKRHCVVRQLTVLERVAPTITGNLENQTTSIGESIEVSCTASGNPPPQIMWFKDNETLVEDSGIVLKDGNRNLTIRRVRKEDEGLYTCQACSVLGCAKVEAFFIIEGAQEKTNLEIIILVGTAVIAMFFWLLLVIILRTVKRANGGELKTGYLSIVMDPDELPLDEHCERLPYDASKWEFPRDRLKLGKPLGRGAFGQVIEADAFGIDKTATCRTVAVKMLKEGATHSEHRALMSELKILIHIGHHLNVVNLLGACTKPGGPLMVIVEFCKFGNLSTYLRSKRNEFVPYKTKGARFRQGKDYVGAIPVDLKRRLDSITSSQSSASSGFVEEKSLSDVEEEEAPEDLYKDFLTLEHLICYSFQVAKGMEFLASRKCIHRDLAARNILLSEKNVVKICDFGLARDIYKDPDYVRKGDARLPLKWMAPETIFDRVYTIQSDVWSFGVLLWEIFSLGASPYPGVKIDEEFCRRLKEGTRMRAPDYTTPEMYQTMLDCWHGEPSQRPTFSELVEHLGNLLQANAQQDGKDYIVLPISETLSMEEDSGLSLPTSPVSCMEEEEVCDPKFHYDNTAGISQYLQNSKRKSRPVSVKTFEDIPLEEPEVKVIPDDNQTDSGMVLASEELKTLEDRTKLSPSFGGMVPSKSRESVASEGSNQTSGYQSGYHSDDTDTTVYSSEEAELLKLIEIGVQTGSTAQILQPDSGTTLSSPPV

By IC50 is commonly meant the concentration at which inhibition is half-maximal. As to `COc1cc2ncnc(Oc3ccc(CC(=O)Nc4nc(C)c(C)s4)nc3)c2cc1OC` [Example 1, N-(4,5-dimethylthiazol-2-yl)-2-[5-(6,7-dimethoxyquinazolin-4-yloxy)pyridin-2-yl]acetamide], the half-inhibitory concentration (IC50) was approximately 2 nM in assay [1] and approximately 5 nM in assay [2].

Consider `CCn1cc(NC(=O)Cc2ncc(Oc3ncnc4cc(OC)c(OC)cc34)cc2OC)cn1` [Example 7, N-(1-ethyl-1H-pyrazol-4-yl)-2-[5-(6,7-dimethoxyquinazolin-4-yloxy)-3-methoxypyridin-2-yl]acetamide], for which the IC50 in assay [1] is more than 3000 nM; in assay [2], approximately 10 nM.

As to `COc1cc2ncnc(Oc3cnc(CC(=O)Nc4cnn(C(C)C)c4)c(OC)c3)c2cc1OC` [Example 8, N-(1-isopropyl-1H-pyrazol-4-yl)-2-[5-(6,7-dimethoxyquinazolin-4-yloxy)-3-methoxypyridin-2-yl]acetamide], the IC50 was more than 5000 nM in assay [1] and approximately 5 nM in assay [2].

On to `CCn1cc(NC(=O)Cc2ccc(Oc3ncnc4cc(OC)c(OC)cc34)cn2)cn1` [N-(1-ethyl-1H-pyrazol-4-yl)-2-[5-(6,7-dimethoxyquinazolin-4-yloxy)pyridin-2-yl]acetamide], for which, in assay [2], the IC50 was approximately 25 nM.

Consider `COc1cc2ncnc(Oc3ccc(CC(=O)Nc4cc(C)on4)nc3)c2cc1OC` [N-(5-methylisoxazol-3-yl)-2-[5-(6,7-dimethoxyquinazolin-4-yloxy)pyridin-2-yl]acetamide], for which the IC50 in assay [1] is approximately 300 nM; in assay [2] it was approximately 25 nM.

The values above are taken from patent publication US20090233950A1, “QUINAZOLINE DERIVATIVES” (priority 2006, published 2009).
